This passage reports mutagenic call results from PubChem BioAssay AID1259407 (Chemical Carcinogenesis Research Information System (CCRIS), 2018).

The series has as its system CCRIS mutagenicity, Ames/micronucleus/aberration tests. The experiment in a line: CCRIS mutagenicity studies. As to conditions: Test System: AMES SALMONELLA TYPHIMURIUM, Method: PREINCUBATION

Calls of active or inactive are those of the source. How the calls were made is not given here.

With `C=CC(=O)NCNC(=O)C=C`, the mutagenic call (Strain/Indicator: TA97, Metabolic Activation: HAMSTER, LIVER, S-9, AROCLOR 1254 (10%)) was “inactive; negative”; the mutagenic call (Strain/Indicator: TA97, Metabolic Activation: NONE) was “inactive; negative”; the mutagenic call (Strain/Indicator: TA97, Metabolic Activation: RAT, LIVER, S-9, AROCLOR 1254 (10%)) is “inactive; negative”; the mutagenic call (Strain/Indicator: TA98, Metabolic Activation: HAMSTER, LIVER, S-9, AROCLOR 1254 (10%)) was “inactive; negative”; the mutagenic call (Strain/Indicator: TA98, Metabolic Activation: NONE) was “inactive; negative”; the mutagenic call (Strain/Indicator: TA98, Metabolic Activation: RAT, LIVER, S-9, AROCLOR 1254 (10%)) was “inactive; negative”. Moreover, the mutagenic call (Strain/Indicator: TA100, Metabolic Activation: HAMSTER, LIVER, S-9, AROCLOR 1254 (5, 10 OR 30%)) is “inactive; negative”; the mutagenic call (Strain/Indicator: TA100, Metabolic Activation: NONE) is “inactive; negative”; the mutagenic call (Strain/Indicator: TA100, Metabolic Activation: RAT, LIVER, S-9, AROCLOR 1254 (10%)) was “inactive; negative”; the mutagenic call (Strain/Indicator: TA1535, Metabolic Activation: HAMSTER, LIVER, S-9, AROCLOR 1254 (10%)) is “active; positive”; the mutagenic call (Strain/Indicator: TA1535, Metabolic Activation: NONE) is “inactive; negative”; the mutagenic call (Strain/Indicator: TA1535, Metabolic Activation: RAT, LIVER, S-9, AROCLOR 1254 (10%)) was “inactive; negative”.
